US9242948B2, “Diepoxy compound, process for producing same, and composition containing the diepoxy compound” (Sumitomo Chemical Company, Limited, priority 2009, dated 2016)

Assay: Measurement of solubility in methyl isobutyl ketone
Assay type: physicochemical
Details: for Solubility: compound (g)×100/[compound (g)+methyl isobutyl ketone (g)]; for Solubility relative to that of the compound represented by the formula (A): from Table 1
Procedure: <Measurement of Solubility>
by the formula (1-1) which was obtained in Example 2, the compound represented by the formula (1-2) which was obtained in Example 6, and the compound represented by the following formula (A)
[drawing 31] (compound (g)×100/[compound (g)+methyl isobutyl ketone (g)], % by weight) were measured.

Solubility (40° C.)	Solubility (65° C.)	Solubility relative to that of the compound represented by the formula (A)	Structure (SMILES)
2.36 % by weight	4.16 % by weight	more than twice as big	O=C(OC1CCC(c2ccc(OCC3CO3)cc2)CC1)c1ccc(OCC2CO2)cc1 (centres unmarked) [formula (1-1), 4-{4-(2,3-epoxypropoxy)phenyl}cyclohexyl 4-(2,3-epoxypropoxy)benzoate]
2.01 % by weight	4.70 % by weight	more than twice as big	Cc1cc(C(=O)OC2CCC(c3ccc(OCC4CO4)cc3)CC2)ccc1OCC1CO1 (centres unmarked) [formula (1-2), 4-{4-(2,3-epoxypropoxy)phenyl}cyclohexyl 4-(2,3-epoxypropoxy)-3-methylbenzoate]
1.10 % by weight	2.00 % by weight	–	Cc1cc(OC(=O)c2ccc(OCC3CO3)cc2)ccc1OC(=O)c1ccc(OCC2CO2)cc1 (centres unmarked) [formula (A), reference compound]
